“Also recorded” adds a separate entry of the source. Read-outs that look alike come from different tables or passages of the source.

The target in experiment [1] is succinate-cytochrome c reductase activity (Complex II-III). Briefly: Inhibition of succinate-cytochrome c reductase activity (Complex II-III) of E. tenella mitochondria-rich fraction. The experiment is classed as biochemical, Eimeria tenella. Conditions: for IC50: E. tenella mitochondria-rich fraction, complex II-III activity, read-out: IC50 of Succinate-cyt c Activity. The protocol: (§1) All enzyme assays were performed using 5–10 µg of the mitochondria-rich fraction using black quartz cuvettes in 0.6 mL reaction mixture at 25 °C. The reagents used in each assay were mixed with a reaction buffer containing 50 mM potassium phosphate (pH 7.4) (KPi Buffer) and 2 mM EDTA.
Cytochrome c–linked NADH, G3P, malate, succinate, and DHO dehydrogenase activities were determined in a reaction mixture containing 30 µM horse heart cytochrome c and 2 mM KCN at 550 nm (ε = 19 mM^−1 cm^−1) by adding 0.2 mM NADH, 5 mM malate, 5 mM G3P, 8.3 mM succinate, and 0.4 mM DHO, respectively, into the reaction buffer.
(§2) […]; As the positive control for complex II-III inhibition assay, 0.1 μM of stigmatellin (complex III inhibitor) was used.

In the next experiment the target is E. tenella complex II (Eimeria tenella, UniProt U6KGY0+U6KWN9). Briefly: Inhibition of succinate-dUQ (SQR) activity of E. tenella complex II. Conditions: for Inhibition of E. tenella complex II: even at higher concentration of 50 μM. The format is biochemical. The protocol:
as §1
Individual G3PDH, MQO, SDH, and DHODH activities were assayed at 278 nm in the presence of each substrate as described above, however, instead of cytochrome c, 50 µM of decylubiquinone (dUQ) (ε = 15 mM^−1 cm^−1) was added. The NDH-2 activity was measured following the consumption of NADH at 340 nm.
as §2

The test system of a further experiment is P. y. yoelii complex II. Particulars: cited from earlier work; for IC50: P. y. yoelii, read-out: IC50 of Succinate-cyt c Activity.
Experiment [2] deals with Succinate-cyt c activity. Conditions: Rat; cited from earlier work.
Experiment [3] has as its system Succinate-cyt c activity. Particulars: Porcine; cited from earlier work.
Another experiment relates to Ascaris suum complex II. Particulars: cited from earlier work.
The test system of a further experiment is bovine complex II. Conditions: cited from earlier work.
In experiment [4] the test system is NADH oxidase activity (NDH-2-Complex III-IV). Briefly: NADH oxidase activity (NDH-2-Complex III-IV) of E. tenella mitochondria-rich fraction. The experiment is classed as biochemical, Eimeria tenella. Conditions: for NADH oxidase specific activity after addition: consecutive additions: 2 mM KCN, then 2 mM fumarate, then 5 mM malonate, without additions 5.9 ± 0.9, experiment C.

For experiment [5], the system named is complex II. On the set-up: method as in PMID 19505951. Particulars: read-out: IC50 for complex II from Leishmania tarentolae; cited from earlier work.
Experiment [6] deals with complex II. On the set-up: method as in PMID 19505951. Conditions: read-out: IC50 for complex II from L. donovani; cited from earlier work.
Experiment [7] has as its system complex II. On the set-up: method as in PMID 19505951. Particulars: read-out: IC50 for complex II from Trypanosoma brucei; cited from earlier work.
The test system of experiment [8] is complex II. Details: method as in PMID 19505951. Conditions: read-out: IC50 for complex II from T. cruzi; cited from earlier work.

Sequence of E. tenella complex II (U6KGY0 entry or part of it): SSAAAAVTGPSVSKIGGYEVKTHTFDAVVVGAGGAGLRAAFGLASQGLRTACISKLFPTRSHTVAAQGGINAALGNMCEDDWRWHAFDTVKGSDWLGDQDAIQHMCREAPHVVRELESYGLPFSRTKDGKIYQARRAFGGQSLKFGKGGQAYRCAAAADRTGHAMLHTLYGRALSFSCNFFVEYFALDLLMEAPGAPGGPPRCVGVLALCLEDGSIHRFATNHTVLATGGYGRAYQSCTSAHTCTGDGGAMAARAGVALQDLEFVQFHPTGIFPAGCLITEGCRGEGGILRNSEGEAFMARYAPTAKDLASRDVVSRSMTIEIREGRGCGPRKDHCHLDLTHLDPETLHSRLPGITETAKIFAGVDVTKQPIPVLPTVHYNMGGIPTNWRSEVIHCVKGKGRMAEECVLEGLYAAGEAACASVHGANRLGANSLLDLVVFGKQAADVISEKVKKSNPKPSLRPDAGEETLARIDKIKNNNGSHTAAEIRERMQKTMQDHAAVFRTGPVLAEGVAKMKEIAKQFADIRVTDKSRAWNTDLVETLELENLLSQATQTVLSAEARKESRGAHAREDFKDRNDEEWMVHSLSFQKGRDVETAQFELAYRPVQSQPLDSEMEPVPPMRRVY
Sequence of E. tenella complex II (U6KWN9 entry or part of it): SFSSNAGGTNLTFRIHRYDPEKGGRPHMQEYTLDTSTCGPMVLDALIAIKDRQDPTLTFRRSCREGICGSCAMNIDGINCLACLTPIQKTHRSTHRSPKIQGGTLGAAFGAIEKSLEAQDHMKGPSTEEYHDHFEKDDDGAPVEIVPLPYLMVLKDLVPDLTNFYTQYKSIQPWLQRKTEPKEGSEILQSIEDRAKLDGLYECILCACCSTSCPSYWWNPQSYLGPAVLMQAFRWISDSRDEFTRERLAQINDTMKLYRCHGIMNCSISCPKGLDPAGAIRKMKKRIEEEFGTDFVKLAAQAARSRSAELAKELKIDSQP

As to `CC(C)Oc1cccc(NC(=O)c2ccccc2C(F)(F)F)c1` [Flutolanil, flutolanil], the 50% inhibitory concentration (IC50) (in general, the concentration that gives 50% inhibition) in [1] is above 50 µM; in the experiment with P. y. yoelii complex II, above 100 µM; with Succinate-cyt c activity [2] it was above 100 µM; in the experiment on Succinate-cyt c activity [3], above 50 µM; in the experiment on Ascaris suum complex II, 0.081 µM. The “Inhibition of E. tenella complex II” value on E. tenella complex II is on record as “did not inhibit”.

For the molecule `CC1=C(C(=O)Nc2ccccc2)SCCO1` [Carboxin, carboxin], the IC50 in experiment [1] is above 50 µM; in the experiment on P. y. yoelii complex II it was 3.6 ± 1 µM; in the experiment on Succinate-cyt c activity [2] it was 3.8 ± 0.1 µM; in the experiment with bovine complex II, 1 µM. In addition, the “Inhibition of E. tenella complex II” value on E. tenella complex II was “did not inhibit”.

In the case of `C/C=C(C)/C=C/C=C/[C@H](OC)[C@@H](C)[C@@H](OC)[C@@H](C)CCc1oc2c(O)c(OC)cc(OC)c2c(=O)c1C` [Stigmatellin, stigmatellin], the “Percentage inhibition of succinate-cyt c activity” value in experiment [1] (E. tenella, 100 nM stigmatellin, positive control for complex III inhibition) was 78.4 ± 13.1% ^2.

As to `O=C(O)/C=C/C(=O)O` [fumarate], in experiment [4], the “NADH oxidase specific activity after addition” value was determined as 1.3 ± 0.3 μmol/min/mg protein.

`Cc1cc(O)c2c(c1)O[C@@]1(C)CC[C@H]3C(C)(C)CCC[C@]34CO[C@@H]2[C@H]41` [Siccanin, siccanin]: the half-maximal inhibitory concentration (IC50) is 4 ± 0.6 µM in [1]; above 50 µM at E. tenella complex II (E. tenella, SQR activity of complex II, read-out: IC50 determined for succinate-dUQ activity); 9.3 ± 1 µM in the experiment on Succinate-cyt c activity [2]; 861 ± 822 µM with Succinate-cyt c activity [3]; 0.19 µM in the experiment on complex II [5]; 1.17 µM in the experiment on complex II [6]. In addition, the IC50 is 0.368 µM with complex II [7] and 1.48 µM in the experiment with complex II [8]. On E. tenella complex II (E. tenella), the “Inhibition of the SQR activity of complex II” value was “did not inhibit”. The “Inhibition of E. tenella complex II” value on E. tenella complex II is “did not inhibit”.

For the molecule `O=C(O)CC(=O)O` [malonate], in experiment [4] (2 mM KCN on NADH oxidase, 5 mM malonate on fumarate-restored activity in presence of KCN), the “Effect on NADH oxidase / fumarate-dependent NADH oxidation activity” value is listed as “abolished; also recorded: completely inhibited”. Moreover, in experiment [4], the “NADH oxidase specific activity after addition” value was −0.5 ± 0.3 μmol/min/mg protein.

Turning to `COc1[nH]c(=O)c(C(=O)[C@@H](C)C[C@H](C)[C@@H](Cl)CCl)c(O)c1OC` [Atpenin A5, atpenin A5], the IC50 was above 50 µM in [1], 4.2 ± 0.2 µM in the experiment on P. y. yoelii complex II, 0.007 ± 0.0003 µM with Succinate-cyt c activity [2] and 0.004 µM in the experiment on bovine complex II. In addition, the “Fold lower sensitivity of P. y. yoelii complex II to atpenin A5” value with P. y. yoelii complex II is reported as “about 600 fold”.

Source of the values: PMC6356742, “Novel Characteristics of Mitochondrial Electron Transport Chain from Eimeria tenella” (Genes, 2019).
